Experimental findings from patent US20140349970A1 (ABBVIE INC., priority 2009, published 2014) are described below.

A value given as a limit tells only on which side of the number the result lay.

One test deals with T1, Syk catalytic domain (aa 356-635 with a C-terminal His-tag) (Homo sapiens, UniProt P43405).
T1 construct: His-tag (C); made in house
In words: In vitro Syk kinase activity measured by trFRET, Syk catalytic domain. It counts as biochemical.
Conditions: not given
An outline of the steps:
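Kinase reaction: 0.14 nM His-tagged catalytic domain, 0.2 μM biotin-TYR1 peptide, 0.001 mM ATP in 50 mM MOPSO pH 6.5 with MgCl2, MnCl2, DTT, BSA, vanadate, ~60 min at rt, then EDTA quench. Phosphoproduct detected by trFRET (Eu anti-pTyr antibody/streptavidin-APC, 665 nm emission); IC50 from signal in linear range.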
As for `CC(C)(O)c1ccc(-c2nc(CN3CCNCC3)n3c2cnc2[nH]ccc23)cc1` [P.3.1.7], the IC50 is 0.1 to 1 µM.

Staying with this test, now noted: Syk catalytic domain (aa 356-635), trFRET, 0.001 mM ATP.
On to `Cn1ncc2cnc3[nH]c(-c4cnc5n4CCC5)cc3c21` [N.1.27], for which the IC50 lay within 1 to 10 µM.

For `Cn1ncc2cnc3[nH]c(-c4ccncc4)cc3c21` [N.2.1], the IC50 fell in the range of 0.1 to 1 µM.

`COc1ccc(-c2cc3c(ncc4nnc(C)n43)[nH]2)cc1` [M.1.19]: the IC50 fell in the range of 1 to 10 µM.

The compound `Cc1nc(-c2ccc(C(C)(C)O)cc2F)c2cnc3[nH]ccc3n12` [N.1.102] came in with an IC50 of 0.1 to 1 µM.

With `COCCc1nc(-c2ccc(OC)cc2)c2cnc3[nH]ccc3n12` [N.1.88], the IC50 fell in the range of 0.1 to 1 µM.

In the case of `Cn1cc(-c2cc3c(ncc4cnn(C)c43)[nH]2)c2nccnc21` [N.1.117], the IC50 fell in the range of 0.1 to 1 µM.

The compound `COc1ccc2c(c1)c(-c1cc3c(ncc4cnc(C(F)(F)F)n43)[nH]1)cn2C` [L.1.1, 7-(5-Methoxy-1-methyl-1H-indol-3-yl)-1-(trifluoromethyl)-6H-imidazo[1,5-a]pyrrolo[2,3-e]pyrazine] displayed an IC50 of 0.1 to 1 µM.

For `COc1ccc2c(c1)c(-c1cc3c(ncc4cnc(CN)n43)[nH]1)cn2C` [T.2.1, (7-(5-Methoxy-1-methyl-1H-indol-3-yl)-6H-imidazo[1,5-a]pyrrolo[2,3-e]pyrazin-1-yl)methanamine], the half-maximal inhibitory concentration (IC50) lay within 0.1 to 1 µM.

As to `CNC(=O)c1cccc(-c2cc3c(ncc4cnn(C)c43)[nH]2)c1` [N.1.4], the IC50 was under 0.1 µM.

The compound `Cn1ncc2cnc3[nH]c(-c4cccc(CNC(=O)CCN5CCOCC5)c4)cc3c21` [J.1.1.3] showed an IC50 of 0.1 to 1 µM.
